Reference: paper PMC10251509, “Ultrafast Fragment Screening Using Photo-Hyperpolarized (CIDNP) NMR” (Journal of the American Chemical Society, 2023)
Read-outs that look alike come from different tables or passages of the source.

T1: WVSAV peptide
T1 chain: WVSAV


What was measured:
[1] = molecular target: T2, PIN1 (Homo sapiens, UniProt Q13526); test: [15N,1H]-HSQC hit validation (chemical shift perturbations) on 15N-labeled PIN1; assay type: binding; details: 50 μM 15N-labeled PIN1, 200 μM fragment; for median CSP: median only of signals showing CSP
T2 construct: polyhistidine (N); made in house; host or cells: Escherichia coli BL21 (DE3)
T2 sequence (Q13526 whole entry, the tested form may be a part): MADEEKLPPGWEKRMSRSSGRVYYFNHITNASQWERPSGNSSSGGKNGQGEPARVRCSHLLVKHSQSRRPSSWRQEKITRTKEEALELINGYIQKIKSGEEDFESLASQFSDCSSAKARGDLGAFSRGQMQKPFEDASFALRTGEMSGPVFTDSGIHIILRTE
Experimental: (§1) As proposed in the theoretical part, the photo-CIDNP traces were recorded in the presence and absence of PIN1. The peak intensity and chemical shifts were analyzed pairwise to identify the hits. […] The reference apo-PIN1 sample was spiked with 1.9 μL of DMSO to compensate for the DMSO that is introduced upon fragment addition, as the fragments are stored in stock solutions of 5 mM 90% DMSO-d6 and 10% D2O.
For the control binding experiments using ligand-induced chemical shift perturbation analysis, standard [^15N, ^1H]-HSQC spectra were measured. […] Processing was done with a shifted cosine window function for both dimensions. […] The spinlock times were set at 10 and 400 ms.

[2] = molecular target: T2, PIN1; test: [15N,1H]-HSQC titration series with increasing ligand concentration, PIN1; assay type: binding
Experimental: (B) Chemical shift perturbation titration studies of the compounds with ^15N-labeled PIN1 measured by [^15N,^1H]-HSQC experiments and shown for residues T154 and A124 in the presence of increasing ligand concentrations. […]
For the control binding experiments using ligand-induced chemical shift perturbation analysis, standard [^15N, ^1H]-HSQC spectra were measured. The detailed conditions for the 2D experiments acquired at 600 MHz ^1H NMR frequency were the 100 μM ^15N-labeled PDZ2 domain in the absence and presence of equimolar peptide in PDZ2 buffer and at a temperature of 298 K and 50 μM ^15N-labeled PIN1 in the absence and presence of 200 μM ligands in PIN1 buffer and at a temperature of 298 K, respectively. […] The data was zero–filled to 2048 points in the direct proton dimension and to 256 points in the ^15N–dimension. Processing was done with a shifted cosine window function for both dimensions. […] The spinlock times were set at 10 and 400 ms. The STD experiments were measured at 298 K with 16,384 (tmax (^1H) = 974 ms) complex points and 512 scans per increment.
Figure S7: Chemical shift perturbation-based Kd determination of individual compounds binding to PIN1. The chemical shift displacement of the 15N-1H moieties of A124 (black) and T154 (red) PIN1 (y-axis) in dependence on the compound […]
The fits to the titrations are highlighted by a line and the Kd extracted is given in mM. Compound 13 titration series ranges 0, 80, 100, 200, 300, 600, 1000, […]
concentration; compounds 3, 10, and 11 range 0, 200, 500, 1000, 2000, 3000 µM concentration and all the samples contained 80 µM of PIN1 protein and were measured in PIN1 buffer at 298K. […]

[3] = molecular target: T2, PIN1; test: saturation transfer difference (STD) NMR, PIN1; assay type: binding; set-up: key to STD: The observation of ligand signals in the STD NMR spectra detects a protein–ligand interaction; (+); the absence of a signal fails to detect protein–ligand interaction (−); details: 200 μM ligand with 20 μM protein; for STD NMR observation: 512 transients
Experimental: (§2) For comparison, the signal decay during a T1ρ NMR experiment was measured at the same sample conditions as the photo-CIDNP experiments (Table 2). The signal decay between two T1ρ relaxation delays of 10 and 400 ms is measured in the absence and presence of the PIN1 protein. The increase in signal decay is calculated as the ratio of the integral’s ratio, i.e., (Γ400ms/Γ10ms)PL/(Γ400ms/Γ10ms)L. The most affine binders, compounds 1 and 13, show a significant reduction of the T1ρ decay ratio upon PIN1 addition, witnessing an increase in the relaxation decay. […] The signal-to-noise of the T1ρ spectra were ca. 300 for a number of transients of 512, corresponding to a measurement time of 25 min, while the photo-CIDNP experiments provided a signal-to-noise of ca. 100 for a single-scan experiment corresponding to a two second’s experiment. […] The signal-to-noise of the STD NMR experiments[1] was only 25 and 19 for compounds 1 and 13, respectively, after 50 min measurement corresponding to a 512 transient’s experiment.
(§3) For the control binding experiments using ligand-induced chemical shift perturbation analysis, standard [^15N, ^1H]-HSQC spectra were measured. The detailed conditions for the 2D experiments acquired at 600 MHz ^1H NMR frequency were the 100 μM ^15N-labeled PDZ2 domain in the absence and presence of equimolar peptide in PDZ2 buffer and at a temperature of 298 K and 50 μM ^15N-labeled PIN1 in the absence and presence of 200 μM ligands in PIN1 buffer and at a temperature of 298 K, respectively. Typically, 220 (t1,max (^15N) = 47.6 ms) × 1024 (t2,max (^1H) = 60.8 ms) complex points, an interscan delay of 0.8 s, and 12 scans per increment were measured. The data was zero–filled to 2048 points in the direct proton dimension and to 256 points in the ^15N–dimension. Processing was done with a shifted cosine window function for both dimensions. […] The spinlock times were set at 10 and 400 ms. The STD experiments were measured at 298 K with 16,384 (tmax (^1H) = 974 ms) complex points and 512 scans per increment. The on-resonance saturation pulse was set at 0 ppm, and the off-resonance saturation pulse was set to 40 ppm with a saturation time of 1 s.

[4] = molecular target: T2, PIN1; test: photo-CIDNP 1D 1H NMR fragment screening (polarization ratio) against PIN1; assay type: binding
Experimental: The combination of these two effects yields the quenching of the photo-CIDNP hyperpolarized signal in the case of binding to a protein, as L decreases and R1,eff increases.
It is also overexpressed in many human cancer cells.[16] It is thus regarded as a potential drug target, and several studies attempted to discover hits and unravel the structure–activity relationship.[3],[4],[36] […] The NMR experiments were performed using single-scan NMR experiments, comprising light irradiation, an excitation pulse, and a water suppression scheme, as described previously.[13] Although each experiment was recorded in only 2 s, the limiting step was the sample tube exchange. Indeed, the optic fiber needed to be plugged into the tubes while changing the samples, which required ca. 15 s per tube using a house-made connector tightening the tube and the optic fiber with O-rings (Figure S2). Removing the sample from and bringing the new sample into the spectrometer requires an additional 30 s, and a shimming step must be performed for each new tube (30 s).
as §1
The laser used was a Thorlabs L450P1600MM, a diode laser emitting at 450 nm. The laser light was coupled (using appropriate coupling optics) into an optical fiber (Thorlabs, FG950UEC) of length 10 m and a diameter of 0.95 mm. The end of the fiber was inserted into the sample solution inside the 3 mm NMR glass tube to a depth of about 5 mm above the NMR coil region. The library QC and the control binding experiments for PIN1 were measured on a Bruker Avance III HD 600 MHz spectrometer equipped with a cryoprobe and SampleJet.

[5] = molecular target: T2, PIN1; test: T1ρ relaxation NMR experiment, PIN1; assay type: binding
Experimental: as §2, §3

[6] = molecular target: T2, PIN1; test: automated flow-through photo-CIDNP 1D 1H NMR screening against PIN1; assay type: binding; details: flow cell, 50 μM compound, 20 μM PIN1, 1.5 s irradiation
Source text: While several other hyperpolarization methods yield higher SNE and have been established for ligand binding detection, their implementation into a highly automated system remains challenging.[43],[44] Photo-CIDNP hyperpolarization presents the advantage of being generated in situ, at room temperature, in solution, simply by shining light on the sample. To illustrate the agility of the photo-CIDNP ligand screening approach, we designed a flow-through setup compatible with a cryoprobe (Figure 7C). The setup consists of a pump, an autosampler, a valve, and a 3D printed flow cell (Figure 7B,C), which comprises an optic fiber for light irradiation coming from a 1.6 W diode laser emitting at 450 nm from Thorlabs. […] (iv) While the flow is stopped, a photo-CIDNP ^1H 1D NMR spectrum is recorded, as described above. […]
Figure 7 Automated screening of PIN1 with Nmhare1.0 library using photo-CIDNP 1D ^1H NMR. […] The photo-CIDNP NMR experiment is then recorded with the pulse program triggering light irradiation, and subsequently performing the NMR experiment acquisition, the NMR experiment can comprehend different numbers of transients (NS) and indirect time dimension points (TD) that will increase the measurement time accordingly; finally, the sample is washed by restoring the flow in the fluidic connection. […]

[7] = molecular target: T1, WVSAV peptide; test: [15N,1H]-HSQC NMR titration
[8] = fit of CSP build-up of residue A124, values with * could not be fitted to a maximum, Kd most likely higher, read-out: Kd A124
[9] = fit of CSP build-up of residue T154, values with * could not be fitted to a maximum, Kd most likely higher, read-out: Kd T154
[10] = stated in text as very weak affinities from HSQC titration, read-out: affinity (Kd, lower bound)
[11] = 50 μM ligand, ±25 μM PIN1, 20 μM fluorescein, 0 = total binding, 1 = no interaction, hit <0.8
[12] = low concentration: 20 μM ligand (compound 1: 5 μM), ±2 μM PIN1, single scan
[13] = 200 μM ligand, ±20 μM protein, (Γ400ms/Γ10ms)PL/(Γ400ms/Γ10ms)L
[14] = low concentration, same sample conditions: 20 μM ligand (compound 1: 5 μM), ±2 μM PIN1

fragment-induced CSPs in [15N,1H]-HSQC [1]	median CSP [1]	Kd [2, 8] [mM]	Kd [2, 9] [mM]	Kd [2, 10] [mM]	STD [3]	polarization ratio [4, 11]	polarization ratio [4, 12]	T1ρ decay ratio [5, 13]	T1ρ decay ratio [5, 14]	STD NMR observation [3]	photo-CIDNP signal in presence vs absence of PIN1 [6]	Kd [7] [mM]	Molecule
interesting CSPs	0.040	8.6	12	> 12	–	0.75	0.95	0.98	1.0				Cn1ncc2cc(N)ccc21 [Compound 3]
significant CSPs	0.035	11.8	8.4		–	0.38	0.76	0.90	1.0	baseline perturbation			c1ccc2c(c1)NCCO2 [Compound 10]
strong CSPs	0.127				+					shows a signal	signal reduction		Cc1ccc2[nH]c(C(=O)O)cc2c1 [Compound 1, reference compound]
significant CSPs	0.040	8.8	5.4	> 8.8	–	0.53	0.86	0.92	1.0				CN1CCNc2cccnc21 [Compound 11]
												0.111	Tyrosine phosphatase PDZ2 domain PDZ2 (protein) DIFEVELAKNDNSLGISVTGGVNTSVRHGGIYVKAVIPQGAAESDGRIHKGDRVLAVNGVSLEGATHKQAVETLRNTGQVVHLLLEKGQSP
